According to paper PMC5421785, “Citrullination only infrequently impacts peptide binding to HLA class II MHC” (PLoS ONE, 2017):
Read-outs that look alike come from different tables or passages of the source. Square brackets hold non-standard residues; d marks the D form. Ends that are not written are not given here. Peptide text beside a SMILES is read from it. Cit = NC(=O)NCCC[C@H](N)C(=O)O

Tests used:
Assay in all cases: HLA class II peptide binding, inhibition of radiolabeled peptide binding to purified MHC; on IC50 DRB1*01:01: competition with radiolabeled peptide (0.1–1 nM); on IC50 DRB1*04:01: competition with radiolabeled peptide (0.1–1 nM)
DRB1*03:01 = DRB1*03:01 (Homo sapiens, UniProt P01903+P01911, A100K/A102G/A103R/A169T/F55Y/I96L/K41T/L162R/M171V/P40S/Q125H/Q178H/Q39Y/R42S/S66N/T106N/T262R/W38E/Y61H); conditions: Other DR, competition with radiolabeled peptide, two-day incubation, three or more independent experiments
DRB1*12:01 = DRB1*12:01 (Homo sapiens, UniProt P01903+P01911, A100R/A169T/D57E/D86V/F55L/H45Y/K41T/L162R/M171V/P40S/Q125H/Q178H/Q39Y/Q99D/R42G/S66L/T262R/V114A/V67L/W38E/Y59H/Y61H/Y89S); conditions: SE-, competition with radiolabeled peptide, two-day incubation, three or more independent experiments
DRB1*04:02 = DRB1*04:02 (Homo sapiens, UniProt P01903+P01911, A100E/A169T/F76Y/K127E/L162R/M171V/N62H/P40V/Q125Y/Q99D/R42H/S133A/S149N/S66Y/V209L/W38E); conditions: SE-, competition with radiolabeled peptide, two-day incubation, three or more independent experiments
DRB1*10:01 = DRB1*10:01 (Homo sapiens, UniProt P01903+P01911, A100R/A169T/D57E/F55L/F60V/F69Y/F76Y/I96L/L162R/M171V/P40V/Q260P/Q39E/Q99R/R195Q/R42F/S149N/S66Y/T210M/V115G/V67A/W38E/Y59R/Y61H); conditions: SE+, competition with radiolabeled peptide, two-day incubation, three or more independent experiments
DRB1*09:01 = DRB1*09:01 (Homo sapiens, UniProt P01903+P01911, A100R/A103E/D57H/D86V/F55Y/F60I/F76Y/I96F/K127E/L162R/M171V/P40D/Q125H/Q99R/R33Q/R42F/S133A/S66N/T210M/V115G/W38K/Y107V/Y59G/Y89S); conditions: Other DR, competition with radiolabeled peptide, two-day incubation, three or more independent experiments
DRB1*04:05 = DRB1*04:05 (Homo sapiens, UniProt P01903+P01911, A100R/A169T/D86S/F76Y/I96L/K127E/L162R/M171V/N62H/P40V/Q125Y/R42H/S133A/S149N/S66Y/V115G/V209L/W38E); conditions: SE+, competition with radiolabeled peptide, two-day incubation, three or more independent experiments
HLA-DRB1*04:01 = molecular target: T1, HLA-DRB1*04:01 (Homo sapiens, UniProt P01903+P01911, A100K/A169T/F76Y/I96L/K127E/L162R/M171V/N62H/P40V/Q125Y/R42H/S133A/S149N/S66Y/V115G/V209L/W38E); conditions: read-out: IC50 DRB1*04:01; further: competition with radiolabeled peptide (0.1–1 nM)
T1 construct: EBV transformed homozygous cell lines were used as sources of MHC molecules; endogenous in cells; host or cells: EBV transformed homozygous cell lines

DRB1*13:02 = DRB1*13:02 (Homo sapiens, UniProt P01903+P01911, A100E/A169T/K41T/L162R/M171V/P40S/Q125H/Q178H/Q39Y/Q99D/R42S/S66N/T262R/V115G/W38E/Y61H); conditions: SE-, competition with radiolabeled peptide, two-day incubation, three or more independent experiments
DRB1*11:01 = DRB1*11:01 (Homo sapiens, UniProt P01903+P01911, A100R/A169T/A87E/I96F/K41T/L162R/M171V/P40S/Q125H/Q178H/Q39Y/Q99D/R42S/S66Y/T262R/V115G/W38E); conditions: SE-, competition with radiolabeled peptide, two-day incubation, three or more independent experiments
DRB3*01:01 = molecular target: T2, DRB3*01:01 (Homo sapiens, UniProt P01903+P79483); conditions: Other DR, competition with radiolabeled peptide, two-day incubation, three or more independent experiments
T2 construct: EBV transformed homozygous cell lines were used as sources of MHC molecules; endogenous in cells; host or cells: EBV transformed homozygous cell lines

DRB1*15:01 = molecular target: T3, DRB1*15:01 (Homo sapiens, UniProt P01903+P01911); conditions: SE-, competition with radiolabeled peptide, two-day incubation, three or more independent experiments
T3 construct: EBV transformed homozygous cell lines were used as sources of MHC molecules; endogenous in cells; host or cells: EBV transformed homozygous cell lines

DRB4*01:01 = molecular target: T4, DRB4*01:01 (Homo sapiens, UniProt P01903+P13762, G164S); conditions: Other DR, competition with radiolabeled peptide, two-day incubation, three or more independent experiments
T4 construct: EBV transformed homozygous cell lines were used as sources of MHC molecules; endogenous in cells; host or cells: EBV transformed homozygous cell lines

DRB3*02:02 = DRB3*02:02 (Homo sapiens, UniProt P01903+P79483, A212P/D57E/F66Y/L67A/R103Q/R218S/R40L/S89Y/T80R/V86D/Y55F/Y59H); conditions: Other DR, competition with radiolabeled peptide, two-day incubation, three or more independent experiments
DPB1*04:01 = molecular target: T5, DPB1*04:01 (Homo sapiens, UniProt P04440+P20036)
T5 construct: EBV transformed homozygous cell lines were used as sources of MHC molecules; endogenous in cells; host or cells: EBV transformed homozygous cell lines
T5 sequence (P04440 30-258): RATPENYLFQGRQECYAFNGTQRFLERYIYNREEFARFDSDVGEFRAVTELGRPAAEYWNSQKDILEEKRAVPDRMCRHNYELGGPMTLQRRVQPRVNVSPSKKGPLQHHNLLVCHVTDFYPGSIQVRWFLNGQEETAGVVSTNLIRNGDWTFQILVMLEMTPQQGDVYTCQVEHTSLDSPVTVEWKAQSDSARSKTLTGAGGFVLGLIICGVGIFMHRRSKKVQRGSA
T5 sequence (P20036 29-260 partner): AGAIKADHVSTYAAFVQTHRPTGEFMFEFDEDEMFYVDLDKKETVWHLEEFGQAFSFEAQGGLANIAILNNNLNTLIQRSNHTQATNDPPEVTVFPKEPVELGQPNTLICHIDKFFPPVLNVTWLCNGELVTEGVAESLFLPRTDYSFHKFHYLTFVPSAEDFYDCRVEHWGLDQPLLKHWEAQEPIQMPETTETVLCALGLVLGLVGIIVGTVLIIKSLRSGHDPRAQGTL

DRB5*01:01 = molecular target: T6, DRB5*01:01 (Homo sapiens, UniProt P01903+Q30154); conditions: Other DR, competition with radiolabeled peptide, two-day incubation, three or more independent experiments
T6 construct: EBV transformed homozygous cell lines were used as sources of MHC molecules; endogenous in cells; host or cells: EBV transformed homozygous cell lines

DRB1*04:04 = DRB1*04:04 (Homo sapiens, UniProt P01903+P01911, A100R/A169T/F76Y/I96L/K127E/L162R/M171V/N62H/P40V/Q125Y/R42H/S133A/S149N/S66Y/V209L/W38E); conditions: SE+, competition with radiolabeled peptide, two-day incubation, three or more independent experiments
DRB1*07:01 = DRB1*07:01 (Homo sapiens, UniProt P01903+P01911, A100R/A102G/A103Q/D57E/D86V/E43K/F76Y/K127E/L162R/M171V/P40G/Q125H/Q99D/R33Q/R42Y/R54Q/S133A/S66F/T210M/V115G/Y107V/Y59L/Y89S); conditions: Other DR, competition with radiolabeled peptide, two-day incubation, three or more independent experiments
DRB1*08:02 = DRB1*08:02 (Homo sapiens, UniProt P01903+P01911, A100R/A103L/A169T/F76Y/H45Y/I96F/K41T/L162R/M171V/P40S/Q125H/Q178H/Q39Y/Q99D/R218S/R42G/S66Y/V115G/W38E); conditions: Other DR, competition with radiolabeled peptide, two-day incubation, three or more independent experiments
DQB1*03:01 = DQB1*03:01 (Homo sapiens, UniProt P01909+P01920); conditions: DQ, competition with radiolabeled peptide, two-day incubation, three or more independent experiments
Sequence of DQB1*03:01 (P01920 33-261, other chains not shown): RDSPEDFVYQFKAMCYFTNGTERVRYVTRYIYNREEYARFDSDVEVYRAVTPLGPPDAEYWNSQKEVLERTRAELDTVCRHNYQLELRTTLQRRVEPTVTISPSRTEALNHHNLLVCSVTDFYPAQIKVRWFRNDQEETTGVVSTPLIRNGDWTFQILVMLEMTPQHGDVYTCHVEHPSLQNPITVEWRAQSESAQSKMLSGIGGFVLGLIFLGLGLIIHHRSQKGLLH
DRB1*16:02 = DRB1*16:02 (Homo sapiens, UniProt P01903+P01911, A100R/F76Y/I96L/Q99D/V115G); conditions: SE-, competition with radiolabeled peptide, two-day incubation, three or more independent experiments
HLA-DRB1*01:01 = molecular target: T7, HLA-DRB1*01:01 (Homo sapiens, UniProt P01903+P01911, A100R/D57E/F55L/F60I/F76Y/I96L/L162R/M171V/P40L/Q125E/R42F/V115G/Y59C); conditions: read-out: IC50 DRB1*01:01; further: competition with radiolabeled peptide (0.1–1 nM)
T7 construct: EBV transformed homozygous cell lines were used as sources of MHC molecules; endogenous in cells; host or cells: EBV transformed homozygous cell lines

[1] = DP, purified MHC, competition with radiolabeled peptide, two-day incubation, three or more independent experiments

Compound | IC50 (DRB1*03:01) | IC50 (DRB1*12:01) | IC50 (DRB1*04:02) | IC50 (DRB1*10:01) | IC50 (DRB1*09:01) | IC50 (DRB1*04:05) | IC50 (HLA-DRB1*04:01) | IC50 (DRB1*13:02) | IC50 (DRB1*11:01) | IC50 (DRB3*01:01) | IC50 (DRB1*15:01) | IC50 (DRB4*01:01) | IC50 (DRB3*02:02) | IC50 (DPB1*04:01; [1]) | IC50 (DRB5*01:01) | IC50 (DRB1*04:04) | IC50 (DRB1*07:01) | IC50 (DRB1*08:02) | IC50 (DQB1*03:01) | IC50 (DRB1*16:02) | further results
SAVRLRSSVPGVR [Vimentin 66–78 WT] | 12200 nM | 15900 nM | 927 nM | 5170 nM | 1410 nM | 3960 nM | 13100 nM | 11400 nM | 11800 nM | > 30000 nM | 4.1 nM | 2020 nM | 9090 nM | > 30000 nM | 2230 nM | 206 nM | > 30000 nM | 53 nM | 2100 nM | 1080 nM | IC50 (HLA-DRB1*01:01): 3260 nM
CSCC[C@H](NC(=O)[C@H](Cc1ccc(O)cc1)NC(=O)[C@H](CCC(N)=O)NC(=O)[C@@H](N)CC(C)C)C(=O)N[C@@H](CCCNC(N)=O)C(=O)N[C@@H](C)C(=O)N[C@@H](CC(=O)O)C(=O)N[C@@H](CCC(N)=O)C(=O)N[C@@H](C)C(=O)N[C@@H](C)C(=O)NCC(=O)NCC(=O)N[C@@H](CC(C)C)C(=O)N[C@@H](CCCNC(=N)N)C(=O)O [Collagen II 1236–1249 Cit] (H-LQYM[Cit]ADQAAGGLR-OH) | 72 nM | > 30000 nM | 211 nM | 432 nM | 276 nM | 7340 nM | 13 nM | 8290 nM | > 30000 nM | 63 nM | 15200 nM | 7.3 nM | 481 nM | > 30000 nM | 10200 nM | 216 nM | > 30000 nM | 2150 nM | 4120 nM | > 30000 nM | IC50 (HLA-DRB1*01:01): 232 nM
VVLLVATEGRVRVNSAYQDK [Aggrecan 84–103 WT] | 530 nM | 1050 nM | 501 nM | 643 nM | 730 nM | 183 nM | 713 nM | 268 nM | 520 nM | 8460 nM | 1010 nM | 955 nM | 245 nM | 26200 nM | 16 nM | 565 nM | 3030 nM | 3960 nM | 229 nM | 20500 nM | IC50 (HLA-DRB1*01:01): 155 nM
NQDFTNRINKLKNS [Fibrinogen 78–91 WT] | > 30000 nM | 27800 nM | > 30000 nM | 3580 nM | 11100 nM | 12800 nM | > 30000 nM | > 30000 nM | 13900 nM | > 30000 nM | > 30000 nM | 7700 nM | > 30000 nM | > 30000 nM | 23 nM | 2050 nM | > 30000 nM | 457 nM | > 30000 nM | 8430 nM | IC50 (HLA-DRB1*01:01): > 30000 nM
CC(C)C[C@H](NC(=O)[C@H](CCCCN)NC(=O)[C@H](CC(C)C)NC(=O)[C@@H](NC(=O)[C@H](CC(N)=O)NC(=O)[C@H](CCC(N)=O)NC(=O)[C@H](CCCCN)NC(=O)[C@@H](NC(=O)[C@H](Cc1ccc(O)cc1)NC(=O)[C@H](CCCCN)NC(=O)[C@@H]1CCCN1)C(C)C)[C@@H](C)O)C(=O)N[C@@H](C)C(=O)N[C@H](C(=O)O)[C@@H](C)O [HA 307–319, reference compound] |  |  |  |  |  |  |  |  |  |  |  |  |  |  |  |  |  |  |  |  | IC50 (DPB1*04:01): 39100 nM
